# According to patent US7138411B2, “Substituted benzopyran derivatives for the treatment of inflammation” (G.D. Searle & Co., priority 1997, dated 2006):
# How the values were obtained:
# carrageenan foot edema = assay: Rat carrageenan foot pad edema test; format: in vivo, Male Sprague-Dawley rats; set-up: inhibition in vivo: dose or concentration left out as unconfirmed; details: po, 3 h, dosed orally, foot volume three hours after carrageenan, read-out: RAT PAW EDEMA % Inhibition; for inhibition in vivo at 10 mg/kg: @ 10 mpk (values marked *)
# Description: Rat Carrageenan Foot Pad Edema Test
# Male Sprague-Dawley rats were selected in each group so that the average body weight was as close as possible. Rats were fasted with free access to water for over sixteen hours prior to the test. The rats were dosed orally (1 mL) with compounds suspended in vehicle containing 0.5% methylcellulose and 0.025% surfactant, or with vehicle alone. One hour later a subplantar injection of 0.1 mL of 1% solution of carrageenan/sterile 0.9% saline was administered and the volume of the injected foot was measured with a displacement plethysmometer connected to a pressure transducer with a digital indicator. Three hours after the injection of the carrageenan, the volume of the foot was again measured. The average foot swelling in a group of drug-treated animals was compared with that of a group of placebo-treated animals and the percentage inhibition of edema was determined (Otterness and Bliven, Laboratory Models for Testing NSAIDs, in Non-steroidal Anti-Inflammatory Drugs, (J. Lombardino, ed. 1985)).
# Analgesia (Table I) = format: in vivo; set-up: inhibition in vivo: dose or concentration left out as unconfirmed; details: read-out: ANALGESIA % Inhibition; for inhibition in vivo at 10 mg/kg: @ 10 mpk (values marked *)
# COX-2 [1] = biological target: T1, COX-2 (UniProt P35354); assay: Fast assay for COX-2 activity (PGE2 ELISA); format: biochemical, human or murine; details: fast assay: 10 min pre-incubation at 25° C., reaction stopped after two minutes, pH 7.5
# T1 sequence (P35354 1-604): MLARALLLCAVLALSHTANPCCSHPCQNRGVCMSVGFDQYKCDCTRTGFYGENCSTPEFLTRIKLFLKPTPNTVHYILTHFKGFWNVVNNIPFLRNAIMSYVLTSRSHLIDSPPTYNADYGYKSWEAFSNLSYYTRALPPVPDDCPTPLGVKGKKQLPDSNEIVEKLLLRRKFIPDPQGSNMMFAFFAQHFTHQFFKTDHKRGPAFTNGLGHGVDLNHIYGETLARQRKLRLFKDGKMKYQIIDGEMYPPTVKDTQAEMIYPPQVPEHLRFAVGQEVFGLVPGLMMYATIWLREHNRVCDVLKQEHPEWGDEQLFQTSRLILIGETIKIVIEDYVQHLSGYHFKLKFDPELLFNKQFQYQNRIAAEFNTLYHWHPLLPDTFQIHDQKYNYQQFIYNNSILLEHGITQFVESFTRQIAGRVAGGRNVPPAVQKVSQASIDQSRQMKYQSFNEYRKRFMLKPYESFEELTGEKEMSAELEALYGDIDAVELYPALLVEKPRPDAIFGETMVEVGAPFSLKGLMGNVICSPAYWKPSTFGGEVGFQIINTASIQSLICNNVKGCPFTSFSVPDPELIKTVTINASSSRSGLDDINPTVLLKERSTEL
# COX-2 [2] = biological target: T1, COX-2; assay: Assay for COX-2 activity (PGE2 ELISA); details: read-out: COX-2 IC50; 10–20 minutes pre-incubation, reaction stopped after ten minutes, pH 8.0
# COX-1 = COX-1 (UniProt P23219); assay: Assay for COX-1 activity (PGE2 ELISA); details: read-out: COX-1 IC50; 10–20 minutes pre-incubation, reaction stopped after ten minutes, pH 8.0
SMILES,IC50 (COX-2 [1]),melting point,IC50 (COX-2 [2]),IC50 (COX-1),inhibition in vivo (carrageenan foot edema),inhibition in vivo (Analgesia (Table I)),inhibition in vivo at 10 mg/kg (carrageenan foot edema),inhibition in vivo at 10 mg/kg (Analgesia (Table I))
"O=C(O)C1=Cc2cc(Br)ccc2NC1C(F)(F)F (stereo not drawn) [Example 161, 6-Bromo-1,2-dihydro-2-(trifluoromethyl)-3-quinolinecarboxylic acid]",–,–,–,–,53%,56%,–,–
"O=C(O)C1=Cc2cc(Cl)ccc2NC1C(F)(F)F (stereo not drawn) [Example 157, 6-Chloro-1,2-dihydro-2-(trifluoromethyl)-3-quinolinecarboxylic acid]",–,–,–,–,–,–,44%,36%
"O=C(O)C1=Cc2cc(Cl)ccc2N[C@@H]1C(F)(F)F [Example 172, (S)-6-chloro-1,2-dihydro-2-(trifluoromethyl)-3-quinolinecarboxylic acid]",–,–,–,–,57%,67%,–,–
"O=C(O)C1=Cc2cc(Cl)c(Oc3ccc(Cl)cc3Br)cc2OC1C(F)(F)F (stereo not drawn) [Example 188, 7-(2-Bromo-4-chlorophenoxy)-6-chloro-2-(trifluoromethyl)-2H-1-benzopyran-3-carboxylic acid]",< 100 nM,223.6 to 225.6 °C,< 100 nM,3700 nM,57%,69%,–,–
"O=C(O)C1=Cc2cc(Cl)c(Oc3ccccc3)cc2OC1C(F)(F)F (stereo not drawn) [Example 177, 6-Chloro-7-phenoxy-2-(trifluoromethyl)-2H-1-benzopyran-3-carboxylic acid]",< 100 nM,220.2 to 221.8 °C,< 100 nM,300 nM,–,–,59%,61%
O=C(O)C1=Cc2cc(Oc3ccc(C(F)(F)F)cc3)cc(Cl)c2OC1C(F)(F)F (stereo not drawn) [Example 105],300 nM,223.7 to 226 °C,200 nM,100 nM,75%,69%,–,–
"O=C(O)C1=Cc2cc(Cl)c(Cl)c(Cl)c2OC1C(F)(F)F (stereo not drawn) [Example 84, 6,7,8-Trichloro-2-(trifluoromethyl)-2H-1-benzopyran-3-carboxylic acid]",–,–,< 100 nM,2800 nM,44%,24%,–,–
"O=C(O)C1=Cc2c(cc(Cl)c(Cl)c2Cl)OC1C(F)(F)F (stereo not drawn) [Example 83, 5,6,7-Trichloro-2-(trifluoromethyl)-2H-1-benzopyran-3-carboxylic acid]",< 100 nM,–,< 100 nM,1400 nM,56%,65%,–,–
"O=C(O)C1=Cc2cc(Cl)cc(Cl)c2NC1C(F)(F)F (stereo not drawn) [Example 158, 6,8-Dichloro-1,2-dihydro-2-(trifluoromethyl)-3-quinolinecarboxylic acid]",–,–,–,–,–,–,45%,55%
"O=C(O)C1=Cc2cc(Cl)cc(Cl)c2SC1C(F)(F)F (stereo not drawn) [Example 156, 6,8-Dichloro-2-trifluoromethyl-2H-1-benzothiopyran-3-carboxylic acid]",< 100 nM,217.9 to 220.3 °C,< 100 nM,100 nM,54%,66%,–,–
"CC(C)(C)c1cc2c(cc1Cl)C=C(C(=O)O)C(C(F)(F)F)O2 (stereo not drawn) [Example 8, 6-Chloro-7-(1,1-dimethylethyl)-2-trifluoromethyl-2H-1-benzopyran-3-carboxylic acid]",–,–,–,–,43%,36%,–,–
"O=C(O)C1=Cc2cc(Cl)cc(Cl)c2OC1C(F)(F)F (stereo not drawn) [Example 32, 6,8-Dichloro-2-trifluoromethyl-2H-1-benzopyran-3-carboxylic acid]",–,–,–,–,–,–,59%,73%

# Further lines, with some results ahead:
IC50 (COX-2 [1]),melting point,IC50 (COX-2 [2]),IC50 (COX-1),SMILES,inhibition in vivo (carrageenan foot edema),inhibition in vivo (Analgesia (Table I)),inhibition in vivo at 10 mg/kg (carrageenan foot edema),inhibition in vivo at 10 mg/kg (Analgesia (Table I))
7000 nM,–,–,–,"CC(C)(C)c1ccc2c(c1)OC(C(F)(F)F)C(C(=O)O)=C2 (stereo not drawn) [Example 12, 7-(1,1-Dimethylethyl)-2-trifluoromethyl-2H-1-benzopyran-3-carboxylic acid]",30%,37%,–,–
–,185.1 to 186.1 °C,–,–,"N#Cc1ccc2c(c1)C=C(C(=O)O)C(C(F)(F)F)O2 (stereo not drawn) [Example 79, 6–Cyano-2-(trifluoromethyl)-2H-1-benzopyran-3-carboxylic acid]",45%,53%,–,–
300 nM,–,–,–,"O=C(O)C1=Cc2cc(Cl)ccc2OC1C(F)(F)F (stereo not drawn) [Example 1, 6-Chloro-2-trifluoromethyl-2H-1-benzopyran-3-carboxylic acid]",57%,58%,–,–
< 100 nM,–,< 100 nM,1600 nM,"O=C(O)C1=Cc2cc(C(F)F)ccc2OC1C(F)(F)F (stereo not drawn) [Example 81, 6-(Difluoromethyl)-2-(trifluoromethyl)-2H-1-benzopyran-3-carboxylic acid]",36%,44%,–,–
–,–,–,51000 nM,"O=C(O)C1=Cc2cc(OC(F)(F)F)ccc2OC1C(F)(F)F (stereo not drawn) [Example 16, 6-Trifluoromethoxy-2-trifluoromethyl-2H-1-benzopyran-3-carboxylic acid]",48%,34%,–,–
–,208 to 209 °C,–,–,"CN1c2ccc(Cl)cc2C=C(C(=O)O)C1C(F)(F)F (stereo not drawn) [Example 165, 6-Chloro-1,2-dihydro-1-methyl-2-(trifluoromethyl)-3-quinolinecarboxylic acid]",–,–,30%,33%
< 100 nM,–,–,–,"O=C(O)C1=Cc2cc(Cl)c(Cl)cc2OC1C(F)(F)F (stereo not drawn) [Example 31, 6,7-Dichloro-2-trifluoromethyl-2H-1-benzopyran-3-carboxylic acid]",–,–,39%,37%
< 100 nM,186.2 to 189 °C,< 100 nM,< 100 nM,"C#Cc1cc(Cl)cc2c1OC(C(F)(F)F)C(C(=O)O)=C2 (stereo not drawn) [Example 115, 6-Chloro-8-ethynyl-2-(trifluoromethyl)-2H-1-benzopyran-3-carboxylic acid]",52%,62%,–,–
–,–,–,57000 nM,"Cc1cc(Cl)cc2c1OC(C(F)(F)F)C(C(=O)O)=C2 (stereo not drawn) [Example 38, 6-Chloro-8-methyl-2-trifluoromethyl-2H-1-benzopyran-3-carboxylic acid]",47%,55%,–,–
–,168 to 170 °C,–,–,"O=C(O)C1=Cc2cc(I)ccc2OC1C(F)(F)F (stereo not drawn) [Example 24, 6-Iodo-2-trifluoromethyl-2H-1-benzopyran-3-carboxylic acid]",29%,25%,–,–
–,198 to 200 °C,–,–,"C#Cc1ccc2c(c1)C=C(C(=O)O)C(C(F)(F)F)O2 (stereo not drawn) [Example 139, 6-(Ethynyl)-2-(trifluoromethyl)-2H-1-benzopyran-3-carboxylic acid]",42%,41%,–,–
200 nM,190.8 to 193 °C,74000 nM,43000 nM,"O=C(O)C1=Cc2cc(Cl)cc(F)c2OC1C(F)(F)F (stereo not drawn) [Example 46, 6-Chloro-8-fluoro-2-trifluoromethyl-2H-1-benzopyran-3-carboxylic acid]",59%,67%,–,–
< 100 nM,188.8 to 198.7 °C,–,–,"O=C(O)C1=Cc2cc(Cl)ccc2SC1C(F)(F)F (stereo not drawn) [Example 65, 6-Chloro-2-trifluoromethyl-2H-1-benzothiopyran-3-carboxylic acid]",43%,32%,–,–
–,–,–,> 100000 nM,"Cc1cc(Cl)c2c(c1)C=C(C(=O)O)C(C(F)(F)F)O2 (stereo not drawn) [Example 39, 8-Chloro-6-methyl-2-trifluoromethyl-2H-1-benzopyran-3-carboxylic acid]",18%,8%,–,–
